Columns and labels:
AMD patients [1] = experiment: Visual acuity, standard Snellen or ETDRS eye chart; assay type: in vivo, human
Description: (§1) Table 2 provides detailed information regarding patients 1 to 7, including the baseline diagnosis (diagnosis made when starting statin therapy), ending diagnosis (the diagnosis made on the date of the last referenced evaluation), the results of evaluations performed on each patient, and whether the patient responded to statin therapy. The dark adaptation data in this Example is the rod intercept time (or RI time) reported in minutes. In this Example, the dark adaptation data was collected using the AdaptDx® Dark Adaptometer (MacuLogix, Middletown, PA) running its standard Extended Test protocol. […] Data is automatically analyzed by the AdaptDx Dark Adaptometer to provide an RI time based on recovery to a criterion sensitivity level of 5×10^−3 scotopic cd/m^2. […] The visual acuity data was collected using a standard Snellen or ETDRS eye chart with the results presented using the standard 20/20 vision scale. Drusen resolution was determined by evaluation of fundus and OCT imaging by qualified clinicians experienced in AMD evaluation. Fundus and OCT imaging data was collected using the Heidelberg Engineering Spectralis® SD-OCT (Heidelberg, Germany) or the Karl Zeiss Meditec Cirrus® HD-OCT (Jena, Germany), in both cases running standard protocols with automated data analysis performed by the instruments.

AMD patients [2] = experiment: Dark adaptation testing, rod intercept (RI) time, AdaptDx Dark Adaptometer Extended Test protocol; assay type: in vivo, human; settings: for Improvement in RI time: Patient 2, atorvastatin 80 mg/day, July 2018 vs January 2015
Description: Dark adaptation is preferably measured using devices known in the art, for example as described in U.S. Pat. No. 7,494,222. […] Briefly, the methods of the prior art as described therein, while sitting in complete or near-complete darkness the subject is first exposed to a bright photobleaching light to photobleach one or more of the visual pigments. This is followed by exposure to a series of dim stimulus lights to track visual sensitivity recovery from the photobleach. The intensity of the stimulus lights is gradually […] (generally in a staircase fashion), and the subject indicates whether each stimulus light presentation is detectable (e.g., by pushing a response button) or not detectable (e.g., by failing to push the response button). The just-detectible stimulus light intensity and the time at which it is detected are periodically recorded to generate a dark adaptation threshold curve. Finally, the speed of dark adaption is characterized by a parameter extracted from the threshold curve such as the rod intercept time or the rod-cone break time.
as §1

[3] = Patient #4, atorvastatin 80 mg/day, OD, month 0 (May 2018), baseline
[4] = Patient #4, atorvastatin 80 mg/day, OS, month 0 (May 2018), baseline

## CC(C)c1c(C(=O)Nc2ccccc2)c(-c2ccccc2)c(-c2ccc(F)cc2)n1CC[C@@H](O)C[C@@H](O)CC(=O)O [atorvastatin]
AMD patients [1]; Patient #2, atorvastatin 80 mg/day, OD, month 64 (May 2018)
  VA (visual acuity): VA 20/30
AMD patients [1]; Patient #2, atorvastatin 80 mg/day, OS, month 64 (May 2018)
  VA (visual acuity): VA 20/20
AMD patients [1]; [3]
  VA (visual acuity): VA 20/200
AMD patients [1]; Patient #4, atorvastatin 80 mg/day, OD, month 3 (August 2018)
  VA (visual acuity): VA 20/200
AMD patients [1]; [4]
  VA (visual acuity): VA 20/20
AMD patients [1]; Patient #4, atorvastatin 80 mg/day, OS, month 3 (August 2018)
  VA (visual acuity): VA 20/20
AMD patients [1]; Patient #5, atorvastatin 80 mg/day from January 2014, OD, month 0 (January 2014), baseline
  VA (visual acuity): VA 20/25
AMD patients [1]; Patient #5, atorvastatin 80 mg/day from January 2014, OS, month 0 (January 2014), baseline
  VA (visual acuity): VA 20/25
AMD patients [2]; OD
  Improvement in RI time: 1.67 min
AMD patients [2]; OS
  Improvement in RI time: 2.60 min
AMD patients [2]; Patient 5, atorvastatin 80 then 20 mg/day, pravastatin 20 mg/day from April 2018, left eye, June 2018 vs October 2015
  Change in RI time: essentially unchanged
AMD patients [2]; Patient 5, atorvastatin 80 then 20 mg/day, pravastatin 20 mg/day from April 2018, right eye, June 2018 vs October 2015
  Increase in RI time: 7.51 min
AMD patients [2]; Patient #1, atorvastatin 20 to 80 mg/day, OD, month 24 (July 2015)
  RI (rod intercept time): RI > 20 minutes
AMD patients [2]; Patient #1, atorvastatin 20 to 80 mg/day, OD, month 60 (July 2018)
  RI (rod intercept time): RI > 20 minutes
AMD patients [2]; Patient #1, atorvastatin 20 to 80 mg/day, OS, month 24 (July 2015)
  RI (rod intercept time): RI = 17.13 minutes
AMD patients [2]; Patient #1, atorvastatin 20 to 80 mg/day, OS, month 60 (July 2018)
  RI (rod intercept time): RI > 20 minutes
AMD patients [2]; Patient #2, atorvastatin 80 mg/day, OD, month 24 (January 2015)
  RI (rod intercept time): RI = 18.72 minutes
AMD patients [2]; Patient #2, atorvastatin 80 mg/day, OD, month 66 (July 2018)
  RI (rod intercept time): RI = 17.05 minutes
AMD patients [2]; Patient #2, atorvastatin 80 mg/day, OS, month 24 (January 2015)
  RI (rod intercept time): RI = 9.88 minutes
AMD patients [2]; Patient #2, atorvastatin 80 mg/day, OS, month 66 (July 2018)
  RI (rod intercept time): RI = 7.28 minutes
AMD patients [2]; Patient #3, atorvastatin 80 mg/day, OD, month 8 (June 2017)
  RI (rod intercept time): RI > 20 minutes
AMD patients [2]; Patient #3, atorvastatin 80 mg/day, OD, month 20 (June 2018)
  RI (rod intercept time): RI > 20 minutes
AMD patients [2]; Patient #3, atorvastatin 80 mg/day, OS, month 8 (June 2017)
  RI (rod intercept time): RI > 20 minutes
AMD patients [2]; Patient #3, atorvastatin 80 mg/day, OS, month 20 (June 2018)
  RI (rod intercept time): RI > 20 minutes
AMD patients [2]; [3]
  RI (rod intercept time): RI > 20 minutes
AMD patients [2]; Patient #4, atorvastatin 80 mg/day, OD, month 4 (September 2018)
  RI (rod intercept time): RI > 20 minutes
AMD patients [2]; [4]
  RI (rod intercept time): RI > 20 minutes
AMD patients [2]; Patient #4, atorvastatin 80 mg/day, OS, month 4 (September 2018)
  RI (rod intercept time): RI > 20 minutes
AMD patients [2]; Patient #5, atorvastatin 80 mg/day (suspended January 2015-February 2016), then 20 mg/day, pravastatin 20 mg/day from April 2018, OD, month 52 (June 2018)
  RI (rod intercept time): RI = 17.19 minutes
AMD patients [2]; Patient #5, atorvastatin 80 mg/day (suspended January 2015-February 2016), then 20 mg/day, pravastatin 20 mg/day from April 2018, OS, month 52 (June 2018)
  RI (rod intercept time): RI = 10.81 minutes
AMD patients [2]; Patient #5, atorvastatin 80 mg/day January 2014 to January 2015, therapy suspended until February 2016, OD, month 21 (October 2015)
  RI (rod intercept time): RI = 9.68 minutes
AMD patients [2]; Patient #5, atorvastatin 80 mg/day January 2014 to January 2015, therapy suspended until February 2016, OS, month 21 (October 2015)
  RI (rod intercept time): RI = 11.04 minutes
AMD patients [2]; Patient #6, atorvastatin 80 mg/day from November 2017, OD, month −3 (August 2017), before initiation
  RI (rod intercept time): RI = 5.75 minutes
AMD patients [2]; Patient #6, atorvastatin 80 mg/day, OD, month 9 (August 2018)
  RI (rod intercept time): RI = 2.55 minutes
AMD patients [2]; Patient #7, atorvastatin 10 to 20 mg/day, OD, month 0 (April 2016), baseline
  RI (rod intercept time): RI > 20 minutes
AMD patients [2]; Patient #7, atorvastatin 10 to 20 mg/day, OD, month 27 (July 2018)
  RI (rod intercept time): RI > 20 minutes
AMD patients [2]; Patient #7, atorvastatin 10 to 20 mg/day, OS, month 0 (April 2016), baseline
  RI (rod intercept time): RI > 20 minutes
AMD patients [2]; Patient #7, atorvastatin 10 to 20 mg/day, OS, month 27 (July 2018)
  RI (rod intercept time): RI > 20 minutes
